Source: ChEMBL document CHEMBL1201862, “PubChem BioAssay data set” (2004)
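A five-concentration, 48-hour dose response in 96-well plates underlies each endpoint, interpolated linearly between surrounding concentrations. GI50 marks 50% less growth.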 Active and inactive are the calls of the source. Rule as the data show it: active = GI50 up to about 1.1 µM and inactive = higher.

What was measured:
Experiment in all cases: growth of human tumour cells (NCI), 48 h
SR = tested on: SR
OVCAR-4 = tested on: OVCAR-4
DMS-273 = tested on: DMS-273
RXF 393 = tested on: RXF 393
M14 = tested on: M14
CAKI-1 = tested on: CAKI-1
UO-31 = tested on: UO-31
HT-29 = tested on: HT-29
U-251 = tested on: U-251
KM-20L2 = tested on: KM-20L2
LOX IMVI = tested on: LOX IMVI
SK-MEL-5 = tested on: SK-MEL-5
DLD-1 = tested on: DLD-1
SF-539 = tested on: SF-539
NCI-H23 = tested on: NCI-H23
SF-295 = tested on: SF-295
MDA-MB-435 = tested on: MDA-MB-435
UACC-257 = tested on: UACC-257
NCI/ADR-RES = tested on: NCI/ADR-RES
RPMI-8226 = tested on: RPMI-8226

Measured: GI50

NNc1nnc(-c2ccccc2)nc1Cc1ccccc1
inactive: SR 4.43 µM | OVCAR-4 9.14 µM | DMS-273 7.26 µM | RXF 393 5.53 µM | M14 8.57 µM | CAKI-1 13.8 µM | UO-31 3.81 µM | HT-29 8.3 µM | U-251 6.87 µM | KM-20L2 3.84 µM | LOX IMVI 3.56 µM | SK-MEL-5 12.3 µM | DLD-1 13.4 µM | SF-539 4.45 µM | NCI-H23 6.03 µM

COC(=O)C1C(C(=O)OC)N(Cc2ccccc2)C(=O)N1Cc1ccccc1 (configuration not stated)
inactive: OVCAR-4 > 100 µM | RXF 393 > 100 µM | M14 > 100 µM | CAKI-1 99.5 µM | SF-295 39.1 µM | UO-31 87.7 µM | MDA-MB-435 > 100 µM | HT-29 > 100 µM | U-251 > 100 µM | UACC-257 76 µM | LOX IMVI > 100 µM | SK-MEL-5 58.5 µM | SF-539 > 100 µM | NCI/ADR-RES > 100 µM | NCI-H23 75.5 µM | RPMI-8226 35 µM

COc1ccc(/C(Cl)=C(\C=O)c2ccccc2)cc1OC
inactive: SR 5.68 µM | OVCAR-4 25 µM | DMS-273 29.8 µM | RXF 393 14.4 µM | M14 36.1 µM | CAKI-1 24.4 µM | SF-295 17.3 µM | UO-31 13.5 µM | HT-29 28.1 µM | U-251 18 µM | KM-20L2 44 µM | UACC-257 15.2 µM | LOX IMVI 13.2 µM | SK-MEL-5 25.4 µM | DLD-1 15.1 µM | SF-539 31.4 µM | NCI-H23 15.2 µM

Cc1nc2[nH]ncn2c(=O)c1CCCl
inactive: SR > 10 µM | OVCAR-4 > 10 µM | RXF 393 > 10 µM | M14 > 10 µM | CAKI-1 > 10 µM | UO-31 > 10 µM | MDA-MB-435 > 10 µM | HT-29 > 10 µM | U-251 > 10 µM | LOX IMVI > 10 µM | SK-MEL-5 > 10 µM | SF-539 > 10 µM | NCI/ADR-RES > 10 µM | NCI-H23 > 10 µM | RPMI-8226 > 10 µM

CCC(C(=O)c1ccc(OC)c(OC)c1)N(C(=O)C(F)(F)F)C(C)c1ccccc1 (configuration not stated)
inactive: SR > 100 µM | M14 > 100 µM | CAKI-1 > 100 µM | SF-295 > 100 µM | UO-31 > 100 µM | MDA-MB-435 > 100 µM | HT-29 > 100 µM | U-251 > 100 µM | UACC-257 > 100 µM | LOX IMVI > 100 µM | SK-MEL-5 > 100 µM | NCI/ADR-RES > 100 µM | RPMI-8226 > 100 µM

CC(=O)OC1(C#N)CC2OC1C1C2N=NN1C(=O)OC(C)(C)C (configuration not stated)
inactive: SR 32.8 µM | OVCAR-4 65.6 µM | DMS-273 29 µM | RXF 393 40.6 µM | M14 21 µM | CAKI-1 > 100 µM | UO-31 73.3 µM | HT-29 39.4 µM | KM-20L2 55.8 µM | UACC-257 35.4 µM | LOX IMVI 11.5 µM | SK-MEL-5 35.3 µM | DLD-1 20.4 µM | SF-539 23.2 µM | NCI-H23 29.6 µM | RPMI-8226 39.9 µM
